In patent US20220363662A1, “COMPOUNDS AS LXR AGONISTS” (Integral Biosciences Privated Limited, priority 2021, published 2022):
pEC50, pIC50: −log10 of the molar value.

Columns and labels:
[1] = test system: mouse splenocytes; experiment: Mouse splenocytes cytotoxicity assay (CTG); assay type: cell-based; conditions: Splenocyte, CD3e/CD28 activated Balb/c splenocytes, 72 hr
Experimental: IC50 values to look at cytotoxicity of compounds on CD3e/CD28 induced splenocytes, was determined in mouse splenocytes isolated from Balb/c mice. Mouse splenocytes (2.5×10^5 cells/well/160 μl) were activated with Anti-mouse CD3e (0.5 μg/mL, coated overnight at 4° C.; Cat #14-0032-82, eBiosciences) and then incubated with serial dilutions of compounds (3 fold, 8 point dose response starting at 30 μM) and treated with Anti-mouse CD28 (1 μg/mL soluble; Cat #16-0289-81, eBiosciences). Splenocytes were further incubated under cell culture conditions for 72 hr after which assay was terminated by addition of CTG. Plate was incubated for 15 min at 37° C., 5% CO2 and luminescence was measured.

[2] = target: T1, LXR beta (Homo sapiens, UniProt P55055); experiment: LXR beta agonist assay (Lanthascreen TR-FRET); assay type: biochemical; conditions: LXR beta-LBD 5 nM, read-out: LXR-β EC50
T1 construct: 5 μL of 4×LXR beta-LBD was added to each well (final concentration 5 nM); purchased Thermofisher PV4658
T1 sequence (P55055 222-460 limits assumed): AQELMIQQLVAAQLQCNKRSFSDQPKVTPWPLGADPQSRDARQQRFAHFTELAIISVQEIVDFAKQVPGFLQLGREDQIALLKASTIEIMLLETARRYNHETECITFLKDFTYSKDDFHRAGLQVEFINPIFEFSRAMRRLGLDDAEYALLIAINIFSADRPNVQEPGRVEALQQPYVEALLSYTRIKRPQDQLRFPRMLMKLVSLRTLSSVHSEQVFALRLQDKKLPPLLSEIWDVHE
Summary of the method: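 TR-FRET coactivator recruitment: 5 nM LXR beta-LBD with 100 nM Fl-D22 peptide and 10 nM Tb-anti-GST antibody (final) in Coregulator Buffer G, 60 min at 22° C, read hourly up to 4 hours. Duplicate three-fold titrations from 30 μM; EC50 by variable-slope nonlinear regression.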

[3] = test system: A549; experiment: Cell viability assay (resazurin) in A549; assay type: cell-based; conditions: Homo sapiens, 96 hr exposure
Summary of the method: (§1)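 Cells in 10% FBS medium (DMEM; MEM for U87MG) exposed 96 h at 37 °C to serially diluted compound, then 4 h with resazurin (1 mM in medium). Fluorescence (ex 535/em 590 nm) background-subtracted, normalised to DMSO; IC50 by four-parameter variable-slope fit.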

[4] = test system: MDA-MB-231; experiment: Cell viability assay (resazurin) in MDA-MB-231; assay type: cell-based; conditions: Homo sapiens, 96 hr exposure, read-out: MDA_MB-231 Cell IC50
Summary of the method: as §1

[5] = test system: MCF7; experiment: Cell viability assay (resazurin) in MCF7; assay type: cell-based; conditions: Homo sapiens, 96 hr exposure
Experimental: HepG2 (ATCC® HB-8065™), hepatocellular carcinoma, A549 (ATCC® CCL-185™), lung epithelial carcinoma, MCF7 (ATCC® HTB-22™), mammary gland epithelial carcinoma, MDA-MB-231 (ATCC® HTB-26™), TNBC, MiaPaCa-2 (ATCC® CRL-1420™) & Panc-1 (ATCC® CRL-1469™), pancreatic epithelial carcinoma, HCT116 (ATCC® CCL-247™), colon epithelial carcinoma and U87MG (ATCC® HTB-14™), brain epithelial carcinoma cell lines respectively were seeded in the respective medium (DMEM, Cat #10569044 with 10% FBS, Cat #16000044; Gibco for HepG2, A549, MCF7, MDA-MB-231, MiaPaCa-2, Panc-1, HCT116 and MEM, Cat #11095080 with 10% FBS for U87MG). Cells were allowed to grow at 37° C. for 24 hr in 5% CO2 (culture conditions) in a Nuaire incubator (humidified). Serially diluted compounds (100 μl) were added to the culture plate 24 hr later and the cultures were further incubated in culture conditions for 96 hr. Experiment was terminated at the completion of 96 hr exposure to the drug by replacing the medium with 100 μl of 1 mM of resazurin (R7017; Sigma) prepared in culture medium and the plates were further incubated in culture conditions for 4 hr. Fluorescence was then measured using a multimodal plate reader (Biotek Synergy Neo) at an excitation wavelength of 535 nm and emission wavelength of 590 nm to obtain relative fluorescence units. Data analysis was done by subtracting the background fluorescence (only medium blank) value from each reading and then normalizing with the vehicle control (DMSO treated cells) to obtain percent survival/proliferation. Percent survival at different doses was used to calculate IC50 by fitting the curve to the “four-parameter variable slope logistic model” using Prism Graph Pad.

[6] = test system: U87MG; experiment: Cell viability assay (resazurin) in U87MG; assay type: cell-based; conditions: Homo sapiens, U-87 MG; 96 hr exposure
Experimental: (§2) HepG2 (ATCC® HB-8065™), hepatocellular carcinoma, A549 (ATCC® CCL-185™), lung epithelial carcinoma, MCF7 (ATCC® HTB-22™), mammary gland epithelial carcinoma, MDA-MB-231 (ATCC® HTB-26™), TNBC, MiaPaCa-2 (ATCC® CRL-1420™) & Panc-1 (ATCC® CRL-1469™), pancreatic epithelial carcinoma, HCT116 (ATCC® CCL-247™), colon epithelial carcinoma and U87MG (ATCC® HTB-14™), brain epithelial carcinoma cell lines respectively were seeded in the respective medium (DMEM, Cat #10569044 with 10% FBS, Cat #16000044; Gibco for HepG2, A549, MCF7, MDA-MB-231, MiaPaCa-2, Panc-1, HCT116 and MEM, Cat #11095080 with 10% FBS for U87MG). Cells were allowed to grow at 37° C. for 24 hr in 5% CO2 (culture conditions) in a Nuaire incubator (humidified). Serially diluted compounds (100 μl) were added to the culture plate 24 hr later and the cultures were further incubated in culture conditions for 96 hr. […] Fluorescence was then measured using a multimodal plate reader (Biotek Synergy Neo) at an excitation wavelength of 535 nm and emission wavelength of 590 nm to obtain relative fluorescence units. Data analysis was done by subtracting the background fluorescence (only medium blank) value from each reading and then normalizing with the vehicle control (DMSO treated cells) to obtain percent survival/proliferation. […]

[7] = test system: HepG2; experiment: Cell viability assay (resazurin) in HepG2; assay type: cell-based; conditions: Homo sapiens, 96 hr exposure
Summary of the method: as §1

[8] = test system: MiaPaCa-2; experiment: Cell viability assay (resazurin) in MiaPaCa-2; assay type: cell-based; conditions: Homo sapiens, MIA PaCa-2; 96 hr exposure
Experimental: as §2

[9] = test system: mouse splenocytes; experiment: Mouse splenocyte assay, cytokine release (mIFN-γ ELISA); assay type: cell-based; conditions: Balb/c splenocytes, CD3e/CD28 and PMA+Ionomycin induced, read-out: Enhancement of mIFN-γ release by activated Mouse Splenocyte, EC50
Experimental: EC50 values of compounds for enhancement of CD3e/CD28 induced mIFNγ release in mouse splenocytes isolated from Balb/c mice and differentiated (Treg) with PMA+Ionomycin. Mouse splenocytes (2*10^5 cells/well) were activated with Anti-mouse CD3e (0.5 μg/mL, coated overnight at 4° C.; Cat #14-0032-82, eBioscience) and then incubated with Anti-mouse CD28 (1 μg/mL soluble; Cat #16-0289-81, eBiosciences). After 48 hr of incubation serial dilutions of compounds (3 fold, 8 point dose response starting at 1 μM) were left for 6-8 hrs at cell culture conditions and then splenocytes were further incubated with PMA (50 ng/mL final concentration) and 1 μg/mL of Ionomycin (final concentration) and incubated under cell culture conditions overnight after which the supernatant was harvested, diluted to 1:50 and ELISA was performed as per the manufacturer's protocol (mIFN-γ kit; Cat #555138 & 550534, BD Biosciences). Plates were read in Biotek plate reader by measuring absorbance at 450 nm.

[10] = test system: ApoE; experiment: THP-1 Western blotting assay (ApoE); assay type: cell-based; conditions: 30 μM
Experimental: THP-1 cells (2×10^6 cells/well) were differentiated with PMA (10 ng/mL) for 24 following which the cells were treated with different concentrations (30 μM and 10 μM) of compound for 18 hour in cell culture conditions (5% CO2, 37° C.). The cells were lysed using 1×RIPA (Cat #9806; Cell Signaling Technologies) buffer with Protease inhibitor (1×) (Cat #P830, Sigma) and sonicated. Whole cell lysate was collected and protein estimation was done using Bradford Reagent. The samples were subjected to SDS PAGE Electrophoresis and the protein bands were transferred onto PVDF membrane using wet transfer. The membrane was further blocked with 5% non-fat dry milk and incubated with primary antibody (ApoE; 1:1000, Cat #D7I9N, ABCA1; 1:1000, Cat #96292S; Cell Signaling Technologies) and secondary antibody (Anti rabbit IgG 1:2000, Cat #7074S, Cell Signaling Technologies). The membrane was then developed using ECL reagent (Ref. 32106, Thermo Fisher Scientific) in a gel doc system. The expression of protein was quantified by densitometry analysis.

[11] = test system: THP1; experiment: Cell viability assay in THP1; assay type: cell-based; conditions: Homo sapiens, THP-1
[12] = target: T2, LXR alpha (Homo sapiens, UniProt Q13133); experiment: LXR alpha agonist assay (Lanthascreen TR-FRET); assay type: biochemical; conditions: LXR alpha-LBD 2.5 nM, read-out: LXR-α EC50
T2 construct: 5 μL of 4×LXR alpha-LBD was added to each well (final concentration 2.5 nM); purchased Thermofisher PV4655
T2 sequence (Q13133 209-447 limits assumed): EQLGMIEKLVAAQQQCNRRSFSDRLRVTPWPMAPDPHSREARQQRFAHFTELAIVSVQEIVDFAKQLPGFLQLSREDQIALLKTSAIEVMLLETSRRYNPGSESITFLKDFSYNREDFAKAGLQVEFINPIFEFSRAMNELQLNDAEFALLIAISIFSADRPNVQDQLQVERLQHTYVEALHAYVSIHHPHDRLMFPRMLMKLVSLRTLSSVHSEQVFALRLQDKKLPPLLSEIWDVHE
Experimental: EC50 values of compounds against LXR alpha were determined at Integral BioSciences (India) using Lanthascreen TR-FRET (Thermofisher, Cat #PV4655). Assay was performed in a 20 μL final volume in a Black 384-well plate (Corning, Cat #4511). Dose response curve for the compounds were prepared in duplicates with starting concentration at 30 μM and a three-fold titration was performed. The reaction buffer consisted of TR-FRET Coregulator Buffer H. To the compound dilution, 5 μL of 4×LXR alpha-LBD was added to each well (final concentration 2.5 nM). An equal volume (5 μL) containing 4×Fl-D22/Tb-anti GST antibody (final concentration 250 nM/10 nM) was added to initiate the enzyme reaction and the reaction was incubated for 60 min at 22° C. after which the plates were read using BioTek Plate reader for TR-FRET every hour up to 4 hours.
Analysis was done using the standard curve by non-linear regression, variable slope inhibitor curve fits (Graph-Pad Prism) and EC50's of compounds were determined wherever possible.

[13] = test system: HCT116; experiment: Cell viability assay (resazurin) in HCT116; assay type: cell-based; conditions: Homo sapiens, HCT-116; 96 hr exposure
Summary of the method: as §1

## O=c1[nH]ccc2cc(N3CCC(C4CCN(S(=O)(=O)c5ccccc5Cl)CC4)CC3)cc(Cl)c12 [Compound 1.16, 8-chloro-6-(1′-((2-chlorophenyl)sulfonyl)-[4,4′-bipiperidin]-1-yl)isoquinolin-1(2H)-one]
[1]
  pIC50: 4.83

## CN(C)C(=O)c1ccc(N2CCN(C3CC4(C3)CN(C(=O)C(O)(c3ccccc3)C(F)(F)F)C4)CC2)cc1Cl (centres unmarked) [Compound 1.4, 2-chloro-N,N-dimethyl-4-(4-(2-(3,3,3-trifluoro-2-hydroxy-2-phenylpropanoyl)-2-azaspiro[3.3]heptan-6-yl)piperazin-1-yl)benzamide]
[2]
  pEC50: 6.35
[3]
  pIC50: < 4.52
[4]
  pIC50: < 4.52
[5]
  pIC50: < 4.52
[6]
  pIC50: < 4.52
[7]
  pIC50: < 4.52
[8]
  pIC50: < 4.52

## O=c1[nH]ccc2cc(N3CCC(C4CCN(S(=O)(=O)c5ccccc5C(F)(F)F)CC4)CC3)cc(Cl)c12 [Compound 1.14, 8-chloro-6-(1′-(2-(trifluoromethyl)phenylsulfonyl)-4,4′-bipiperidin-1-yl)isoquinolin-1(2H)-one]
[2]
  pEC50: 5.60
[1]
  pIC50: 4.64
[9]
  pEC50: 7.30

## CC(C)(C(=O)N1CCC(C2CCN(c3cc(Cl)c4c(=O)[nH]ccc4c3)CC2)CC1)C(F)(F)F [Compound 1.23, 8-chloro-6-(1′-(3,3,3-trifluoro-2,2-dimethylpropanoyl)-4,4′-bipiperidin-1-yl)isoquinolin-1(2H)-one]
[1]
  pIC50: 5.82

## CN(C)C(=O)c1ccc(NC2CN(C3CCN(C(=O)C(O)(c4ccccc4)C(F)(F)F)CC3)C2)cc1Cl (centres unmarked) [Compound 1.3, 2-chloro-N,N-dimethyl-4-(1-(1-(3,3,3-trifluoro-2-hydroxy-2-phenylpropanoyl)piperidin-4-yl)azetidin-3-ylamino)benzamide]
[2]
  pEC50: 5.95
[3]
  pIC50: < 4.52
[4]
  pIC50: < 4.52
[5]
  pIC50: < 4.59
[6]
  pIC50: < 4.52
[7]
  pIC50: 4.86
[8]
  pIC50: < 4.52

## CC(C)(C(=O)N1CCC(N2CCN(c3cc(Cl)c4c(=O)[nH]ccc4c3)CC2)CC1)C(F)(F)F [Compound 1.21, 8-chloro-6-(4-(1-(3,3,3-trifluoro-2,2-dimethylpropanoyl)piperidin-4-yl)piperazin-1-yl)isoquinolin-1(2H)-one]
[1]
  pIC50: < 4.52
[9]
  pEC50: 6.95

## CC(C)[C@](O)(C(=O)N1CCC(N2CC(Nc3ccc(C(=O)N(C)C)c(Cl)c3)C2)CC1)C(F)(F)F (single isomer, unassigned) [Compound 1.45]
[2]
  pEC50: 5.92
[3]
  pIC50: < 4.52
[4]
  pIC50: < 4.52
[10]; 18 hour, PMA-differentiated THP-1 cells, densitometry, control = 100
  ApoE normalized with Vehicle treated (DMSO) Control: 132.1
[10]; ApoE vs DMSO control, THP-1 cells
  Fold Difference: 1.32
[11]
  pIC50: < 4.52
[12]
  pEC50: < 4.52
[13]
  pIC50: < 4.52
